Measurements published in patent publication US20250179057A1, “MEK IMMUNE ONCOLOGY INHIBITORS AND THERAPEUTIC USES THEREOF” (Immuneering Corporation, priority 2022, published 2025).

Columns and labels:
CYP1A2 = target: T1, CYP1A2 (Homo sapiens, UniProt P05177); experiment: CYP450 panel inhibition in human liver microsomes, 1A2 (phenacetin); conditions: for CYP-1A2 (Phenacetin) mean percentage CYP inhibition: human liver microsomes, 10 μM, substrate phenacetin
T1 sequence (P05177 1-516): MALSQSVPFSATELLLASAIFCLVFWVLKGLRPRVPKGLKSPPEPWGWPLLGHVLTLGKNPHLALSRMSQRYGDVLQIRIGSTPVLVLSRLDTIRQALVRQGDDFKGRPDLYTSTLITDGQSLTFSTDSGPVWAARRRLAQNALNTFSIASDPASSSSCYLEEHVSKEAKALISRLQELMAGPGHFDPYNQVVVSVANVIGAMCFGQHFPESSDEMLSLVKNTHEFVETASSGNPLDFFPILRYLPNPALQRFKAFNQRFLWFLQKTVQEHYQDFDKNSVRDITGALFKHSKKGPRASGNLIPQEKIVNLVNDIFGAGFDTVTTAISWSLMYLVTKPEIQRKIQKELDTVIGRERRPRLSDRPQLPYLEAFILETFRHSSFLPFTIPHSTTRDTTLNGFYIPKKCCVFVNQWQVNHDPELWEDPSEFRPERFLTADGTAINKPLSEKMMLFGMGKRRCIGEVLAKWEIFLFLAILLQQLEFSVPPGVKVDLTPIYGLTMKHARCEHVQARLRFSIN

CYP2C8 [1] = target: T2, CYP2C8 (Homo sapiens, UniProt P10632); experiment: CYP450 panel inhibition in human liver microsomes, 2C8 (amodiaquine); conditions: 10 μM, substrate amodiaquine
T2 sequence (P10632 1-490): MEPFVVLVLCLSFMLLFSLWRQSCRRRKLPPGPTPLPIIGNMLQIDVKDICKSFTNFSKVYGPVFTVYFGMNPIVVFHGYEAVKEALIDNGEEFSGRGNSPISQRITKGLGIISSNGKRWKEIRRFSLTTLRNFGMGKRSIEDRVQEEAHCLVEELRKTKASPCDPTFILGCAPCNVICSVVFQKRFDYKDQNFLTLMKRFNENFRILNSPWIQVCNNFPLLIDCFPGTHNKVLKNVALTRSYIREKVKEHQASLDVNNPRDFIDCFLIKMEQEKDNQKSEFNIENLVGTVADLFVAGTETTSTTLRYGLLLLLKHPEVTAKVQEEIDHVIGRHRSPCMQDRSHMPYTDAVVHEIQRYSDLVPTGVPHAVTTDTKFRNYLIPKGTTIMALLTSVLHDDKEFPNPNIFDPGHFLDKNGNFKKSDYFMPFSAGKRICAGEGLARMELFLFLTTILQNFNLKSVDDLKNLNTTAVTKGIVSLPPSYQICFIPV

PAMPA (pH 7.4) = type: in vitro ADME; conditions: PAMPA
Procedure: Each stock solution was diluted to 50 M in pH 7.4 Prisma HT buffer (pION) and 200 μl was added to each well of the donor plate in triplicate. The polyvinylidene fluoride (PVDF, 0.45 μm) filter membrane on the acceptor plate was coated with 5 μl gastrointestinal tract lipid formulation (GIT-0, pION) and to each well of the acceptor plate, 200 μl of acceptor sink buffer (pION) was added. The acceptor filter plate was then carefully placed on top of the donor plate to form a sandwich. The sandwich was incubated at 25° C. for 4 h without stirring. UV-vis spectra of the solutions in the blank, reference, acceptor and donor plates were measured using a microplate reader (Tecan Infinite 200PRO M Nano Plus). Permeability values were calculated using the PAMPA explorer software v.

[2] = Human liver microsome stability (t1/2, Clint); conditions: human, liver microsomes, pH 7.4
[3] = eLogD (lipophilicity; pH 7.4) by HPLC; type: physicochemical
Procedure: Test compounds were dissolved in DMSO at a concentration of 10 mM and further diluted with methanol:water 1:1. Samples were analyzed using gradient HPLC with three different isocratic mobile phases of 0.25% octanol in methanol (60, 65 and 70%) and 20 mM MOPS buffer (pH 7.4) with decylamine. If needed, (for low E log Doct compounds) the isocratic mobile phases were adjusted to e.g. 40, 45 and 50% methanol. Peaks were detected using a diode array at absorbance 220-320 nm.
Capacity factors data (k′_=(tr−_t0)/t0) obtained at various amounts of methanol were extrapolated to 0% methanol and k′w values are determined using a linear procedure. E log Doct (7.4) is calculated using a series of reference standards with known Log D values. Each experiment was performed in triplicate.

[4] = Mouse liver microsome stability (t1/2, Clint); conditions: mouse, liver microsomes, pH 7.4
[5] = Mouse pharmacokinetics (oral cassette dosing), plasma; type: in vivo; conditions: female, mouse, BALB/c immunocompetent mice, 5 mg/kg p.o.; for AUC(0-t): read-out: AUC0-t; for Cmax: read-out: Cmax; for Tmax: read-out: Tmax
Procedure: Female mice (BALC/c) received a single dose (3 mice/treatment) of vehicle (10% 1N HCl:90% [20% […]) and at 0.5, 1, 2, 4, 8, 12 and 24-hour post dose humanely euthanized.
Blood was obtained through cardiac puncture into K+EDTA tubes, mixed by inversion and centrifuged to obtain the plasma. Blood will be kept on ice or at approximately 4° C. prior. Centrifugation will take place within 30 minutes of blood collection affording plasma samples. Plasma samples will be frozen as soon as possible after centrifugation and stored at −80° C. until analysis. All samples will be analysed by means of LC-MS/MS. Method development for bioanalysis will be performed by pharmacokinetics Department of Crown Bioscience (Taicang) Inc. using LC-MS/MS analysis (using Waters HSS T3 2.1×50 mm (1.8 um) LC column, and an API-4000 Electrospray MS unit). The results of a kinetic solubility (free base) study are represented in Table 19.

[6] = Hepatocyte stability, wistar hannover rat; type: in vitro ADME; conditions: 0.5 million cells/ml; for CLint scaled at 2 μM: Wistar Hannover, rat, hepatocytes; for half-life at 2 μM: wistar hannover rat hepatocytes
Procedure: (§1) In this study, human, cynomolgus monkey, beagle dog, wistar hannover rat, and balb/c mouse hepatocyle stability was determined.

[7] = Hepatocyte stability, balb/c mouse; type: in vitro ADME; conditions: 0.5 million cells/ml; for CLint scaled at 2 μM: BALB/c, mouse, hepatocytes; for half-life at 2 μM: balb/c mouse hepatocytes
Procedure: as §1

[8] = Hepatocyte stability, beagle dog; type: in vitro ADME; conditions: 0.5 million cells/ml; for half-life at 2 μM: beagle dog hepatocytes; for CLint scaled at 2 μM: beagle, dog, hepatocytes
Procedure: as §1

[9] = Hepatocyte stability, human; type: in vitro ADME; conditions: 0.5 million cells/ml; for half-life at 2 μM: human hepatocytes, 120 min; for CLint scaled at 2 μM: human, hepatocytes
Procedure: as §1

CYP2C8 [10] = target: T2, CYP2C8; experiment: in vitro; conditions: microsomes, pH 7.4
CYP2D6 = CYP2D6 (Homo sapiens, UniProt P10635); experiment: in vitro; conditions: microsomes, pH 7.4
[11] = read-out: CLint (L/hr/kg) (converted)

CYP2D6, sequence (P10635 whole entry): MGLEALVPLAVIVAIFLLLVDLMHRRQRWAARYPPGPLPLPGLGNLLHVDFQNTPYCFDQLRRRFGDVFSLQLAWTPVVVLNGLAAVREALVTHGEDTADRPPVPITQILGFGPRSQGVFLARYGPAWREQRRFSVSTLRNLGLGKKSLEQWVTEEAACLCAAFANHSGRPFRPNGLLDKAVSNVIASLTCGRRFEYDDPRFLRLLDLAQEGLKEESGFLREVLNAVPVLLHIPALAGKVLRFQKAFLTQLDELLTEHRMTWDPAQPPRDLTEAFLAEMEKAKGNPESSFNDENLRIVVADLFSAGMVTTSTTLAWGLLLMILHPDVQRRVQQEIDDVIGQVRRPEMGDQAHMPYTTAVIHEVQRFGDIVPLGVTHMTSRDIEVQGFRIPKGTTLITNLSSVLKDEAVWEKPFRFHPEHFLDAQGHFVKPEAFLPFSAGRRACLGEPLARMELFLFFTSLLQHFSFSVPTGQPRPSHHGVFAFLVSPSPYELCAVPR

Structure (SMILES) | CYP-1A2 (Phenacetin) mean percentage CYP inhibition (CYP1A2) [%] | CYP-2C8 (Amodiaquine) mean percentage CYP inhibition (CYP2C8 [1]) [%] | Papp at 4 h, 50 μM (PAMPA (pH 7.4); pH = 7.4 (Table 14)) [×10⁻⁶ cm/s] | AUC(0-t) [5] [ng·h/mL] | Cmax [5] [ng/mL] | Tmax [5] [min] | CLint scaled at 2 μM [6, 11] [L/h/kg] | CLint scaled at 2 μM ([6]; read-out: CLint (mL/min/kg)) [L/h/kg] | half-life at 2 μM [6] [min] | CLint scaled at 2 μM [7, 11] [L/h/kg] | CLint scaled at 2 μM ([7]; read-out: CLint (mL/min/kg)) [L/h/kg] | half-life at 2 μM [7] [min] | half-life at 2 μM [8] [min] | CLint scaled at 2 μM [8, 11] [L/h/kg] | CLint scaled at 2 μM ([8]; read-out: CLint (mL/min/kg)) [L/h/kg] | half-life at 2 μM [9] [min] | CLint scaled at 2 μM [9, 11] [L/h/kg] | CLint scaled at 2 μM ([9]; read-out: CLint (mL/min/kg)) [L/h/kg] | further results
CNS(=O)(=O)Nc1nccc(Cc2c(CN(C)C)c3ccc(OC(=O)N(C)C)cc3oc2=O)c1F [Compound 124] | 9.9 | 59.0 | – | – | – | – | – | – | – | – | – | – | – | – | – | – | – | – | –
Cn1cnc2c(F)c(Nc3ccc(Br)cc3Cl)c(C(=O)NOCCO)cc21 [Reference-1, Selumetinib] | – | – | – | – | – | – | – | – | – | – | – | – | – | – | – | – | – | – | Papp at 4 h, 50 μM (PAMPA (pH 7.4); pH = 7.4): 29 ×10⁻⁶ cm/s; half-life at 1 μM [2]: > 90 min; chromatographic logD [3]: 3.6; half-life at 1 μM [4]: 18 min; microsomal CLint at 1 μM [4]: 78 µL/min/mg
CCN(C)Cc1c(Cc2cccc(NS(=O)(=O)NC)c2F)c(=O)oc2cc(OC(=O)N(C)C)c(F)cc12 [Compound 238] | – | – | 62 | 416 | 857 | 4.98 | 3.97 | 3.97 | 56.6 | 6.57 | 6.6 | 149 | 71.2 | 6.28 | 6.3 | 64 | 3.51 | 3.5 | AUC(0-inf) [5]: 434 ng·h/mL; half-life [5]: 60 min
CCN(C)Cc1c(Cc2cccc(NS(=O)(=O)NC)c2Cl)c(=O)oc2cc(OC(=O)N(C)C)ccc12 [Compound 245, 3-(2-chloro-3-((N-methylsulfamoyl)amino)benzyl)-4-((ethyl(methyl)amino)methyl)-2-oxo-2H-chromen-7-yl dimethylcarbamate] | – | – | 53 | 154 | 384 | 4.98 | 5 | 5 | 44.9 | 7.54 | 7.56 | 130 | 57.2 | 7.81 | 7.8 | 42.2 | 5.32 | 5.32 | inhibition at 30 min, 10 µM (CYP2C8 [10]): 30.4%; inhibition at 30 min, 10 µM (CYP1A2; human, microsomes, pH 7.4): -0.3%; inhibition at 30 min, 10 µM (CYP2D6): 13.7%
CCCS(=O)(=O)Nc1cccc(Cc2c(CN3CCNCC3)c3cc(Cl)c(OC(=O)N(C)C)cc3oc2=O)c1F [Compound 167] | 10.8 | 61.8 | – | – | – | – | – | – | – | – | – | – | – | – | – | – | – | – | –
CNS(=O)(=O)Nc1cccc(Cc2c(CN3CCNCC3)c3cc(F)c(OC(=O)N(C)C)cc3oc2=O)c1F [Compound 134] | −0.9 | 78.8 | – | – | – | – | – | – | – | – | – | – | – | – | – | – | – | – | –
